Experimental data from PubChem BioAssay (NCI).
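Following 48 hours of exposure in 96-well plates, responses at five concentrations were used to interpolate endpoints linearly. GI50: concentration for 50% inhibition of growth. At the TGI there is no net growth.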

Legend:
Test in all cases: DTP human tumour cell line panel, 48 h
RPMI-8226 leukemia = system: RPMI-8226 leukemia
HT29 colon = system: HT29 colon
HS 578T breast = system: HS 578T breast
OVCAR-3 ovarian = system: OVCAR-3 ovarian
SF-539 CNS = system: SF-539 CNS
NCI-H460 lung = system: NCI-H460 lung
MCF7 breast = system: MCF7 breast
EKVX NSCLC = system: EKVX NSCLC
SNB-19 CNS = system: SNB-19 CNS
HCC-2998 colon = system: HCC-2998 colon
NCI-H23 lung = system: NCI-H23 lung
SK-MEL-28 melanoma = system: SK-MEL-28 melanoma
A498 renal = system: A498 renal
786-0 renal = system: 786-0 renal
CAKI-1 renal = system: CAKI-1 renal
SK-OV-3 ovarian = system: SK-OV-3 ovarian
T-47D breast = system: T-47D breast
SR leukemia = system: SR leukemia
OVCAR-4 ovarian = system: OVCAR-4 ovarian
MDA-MB-435 = system: MDA-MB-435
SF-268 CNS = system: SF-268 CNS
NCI/ADR-RES ovarian = system: NCI/ADR-RES ovarian
OVCAR-8 ovarian = system: OVCAR-8 ovarian
TK-10 renal = system: TK-10 renal
SF-295 CNS = system: SF-295 CNS
SW-620 colon = system: SW-620 colon
HL-60(TB) leukemia = system: HL-60(TB) leukemia
CCRF-CEM leukemia = system: CCRF-CEM leukemia
SNB-75 CNS = system: SNB-75 CNS

CCC(=C/[C@H](C)C/C=C/C(C)=C/[C@@H](C)C(=O)[C@@H](C)[C@H](O)[C@@H](C)CC)/C=C/[C@@H]1OC(=O)C=C[C@@H]1C
GI50 (RPMI-8226 leukemia): < 5 nM
TGI (RPMI-8226 leukemia): < 5 nM
GI50 (HT29 colon): < 5 nM
TGI (HT29 colon): 5310 nM
GI50 (HS 578T breast): < 5 nM
TGI (HS 578T breast): 2450 nM
GI50 (OVCAR-3 ovarian): < 5 nM
TGI (OVCAR-3 ovarian): 6300 nM
GI50 (SF-539 CNS): < 5 nM
TGI (SF-539 CNS): < 5 nM
GI50 (NCI-H460 lung): < 5 nM
TGI (NCI-H460 lung): 53.3 nM
GI50 (MCF7 breast): < 5 nM
TGI (MCF7 breast): 158 nM
GI50 (EKVX NSCLC): < 5 nM
TGI (EKVX NSCLC): 8330 nM
GI50 (SNB-19 CNS): < 5 nM
TGI (SNB-19 CNS): 3500 nM
GI50 (HCC-2998 colon): < 5 nM
TGI (HCC-2998 colon): < 5 nM
GI50 (NCI-H23 lung): < 5 nM
TGI (NCI-H23 lung): 4290 nM
GI50 (SK-MEL-28 melanoma): < 5 nM
TGI (SK-MEL-28 melanoma): 75.7 nM
GI50 (A498 renal): < 5 nM
TGI (A498 renal): < 5 nM
GI50 (786-0 renal): < 5 nM
TGI (786-0 renal): < 5 nM
GI50 (CAKI-1 renal): < 5 nM
TGI (CAKI-1 renal): 8530 nM
GI50 (SK-OV-3 ovarian): < 5 nM
TGI (SK-OV-3 ovarian): 6500 nM
GI50 (T-47D breast): < 5 nM
TGI (T-47D breast): 6180 nM
GI50 (SR leukemia): < 5 nM
TGI (SR leukemia): 219 nM
GI50 (OVCAR-4 ovarian): < 5 nM
TGI (OVCAR-4 ovarian): 6660 nM
GI50 (MDA-MB-435): < 5 nM
TGI (MDA-MB-435): < 5 nM
GI50 (SF-268 CNS): < 5 nM
TGI (SF-268 CNS): 2190 nM
GI50 (NCI/ADR-RES ovarian): < 5 nM
TGI (NCI/ADR-RES ovarian): 1370 nM
GI50 (OVCAR-8 ovarian): < 5 nM
TGI (OVCAR-8 ovarian): 6160 nM
GI50 (TK-10 renal): < 5 nM
TGI (TK-10 renal): 10700 nM
GI50 (SF-295 CNS): < 5 nM
TGI (SF-295 CNS): 7490 nM
GI50 (SW-620 colon): < 5 nM
TGI (SW-620 colon): 3180 nM
GI50 (HL-60(TB) leukemia): < 5 nM
TGI (HL-60(TB) leukemia): < 5 nM
GI50 (CCRF-CEM leukemia): < 5 nM
TGI (CCRF-CEM leukemia): 1800 nM
GI50 (SNB-75 CNS): < 5 nM
